In PubChem BioAssay AID449764 (Southern Research Specialized Biocontainment Screening …, 2010):

These compounds were tested on Mycobacterium tuberculosis H37Rv growth inhibition, no glycerol (assay: Mycobacterium tuberculosis H37Rv growth inhibition, no glycerol, confirmatory dose response (AID 449764;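 further: growth read after 7 days of incubation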)). Conditions: not given.

Structure (SMILES) | IC50 [µM]
CC(=O)OC1=Cc2c(ccc3ccc(=O)oc23)OC1(C)C | 47.9
Cc1ccc(C(=O)O/N=C\c2ccc(N3CCCCC3)c([N+](=O)[O-])c2)cc1 | 53.4
CC(C(c1ccc2c(c1)OCO2)c1c(N)n(C)c(=O)n(C)c1=O)[N+](=O)[O-] (stereo not drawn) | 8.17
CCc1ccc(NC(=S)/N=C(\N)Nc2nc(C)c3cc(CC)ccc3n2)cc1 | 10.9
COC(=O)c1c(NC(=S)NN2CCN(C)CC2)sc2c1CCC(C)C2 (stereo not drawn) | 22.8
CCCCCCCNC1=CC(=O)CC(c2ccccc2)C1 (stereo not drawn) | 39.7
CCCC(=O)Nc1ccc(C(=O)/C=C/c2ccc(SC)cc2)cc1 | 64.3
CCOC(=O)c1ccc(NC(=O)C(C)Sc2nc(O)c(-c3ccccc3)c(=O)[nH]2)cc1 (stereo not drawn) | 18.4
Clc1ccc(-c2[nH]ncc2N=Nc2ccccc2)cc1 | 63.1
CN(CCCNC(=O)c1cc2c(Cl)nc3ccccc3c2s1)Cc1ccccc1 | 55.7
Nc1[nH]n2c(=O)cc(-c3ccccc3)nc2c1N=Nc1ccc2c(c1)OCO2 | 33.2
COc1cc(/C=C/C(=O)c2c(O)n(CCc3ccccc3)c(=O)[nH]c2=O)ccc1O | 14.3
Cn1c(CNc2nc(-c3ccccc3)cs2)nnc1SCC(=O)OC1CCCCC1 | 24
CN(C)[C@@H]1C(=O)C(C(N)=O)=C(O)[C@@]2(O)C(=O)C3=C(O)c4c(O)cccc4[C@@](C)(O)C3C[C@@H]12 (stereo partly drawn) | 9.73
Cc1ccsc1/C=C1\SC(N2CCOCC2)=NC1=O | 23.4
Cc1csc(NC(=O)CCCC(=O)O)c1-c1nc2ccccc2s1 | 90.7
CCC(=O)Nc1nc2ccccc2n1Cc1ccc(Cl)cc1 | < 0.2
c1ccc(-c2nnc(-c3ccccn3)nn2)nc1 | 6.07
c1ccc(CCN2CCN(c3ncnc4c3cnn4-c3ccccc3)CC2)cc1 | 47.7
CCOC(=O)N1CCN(C(=O)CSc2nnc(-c3ccc(Cl)s3)o2)CC1 | 25.2
N=c1n(Cc2ccc(Cl)cc2)c2ccccc2n1CC(O)COc1ccccc1 (stereo not drawn) | 22.7

Structure (SMILES) | IC50 [µM]
CNc1ccc2oc(C[C@H]3O[C@@]4(CC[C@H]3C)O[C@H]([C@H](C)C(=O)c3ccc[nH]3)[C@H](C)C[C@H]4C)nc2c1C(=O)O | 2.82
Cc1cc2c(N=O)c(NO)ccc2[nH]1 | 11.9
Cc1ccc(-c2c[n+](CC(=O)N3c4ccccc4Sc4ccccc43)c3n2CCC3)cc1 | 22.9
Cc1c(OCc2ccccc2)c(=O)ccn1Cc1ccc(Cl)cc1 | 57.6
NC(=O)c1cccc(-c2cc(Nc3ccc(OC(F)(F)F)cc3)ncn2)c1 | 24.5
Cn1cc(C(=O)c2ccc(Cl)cc2)cc1-c1nc2ccccc2n1C | 35.9
N#C/C(=C/c1ccc(Sc2nc3ccccc3[nH]2)o1)c1cccc(Br)c1 | 57.9
CCC(=O)c1ccc(OCC(O)CN2CCN(c3cccc(C(F)(F)F)c3)CC2)cc1 (stereo not drawn) | 19.7
O=[N+]([O-])c1cc(Cl)c(O)c(-[n+]2c(-c3ccccc3)cc(-c3ccccc3)cc2-c2ccccc2)c1 | 4.63
O=C(OCC(=O)N1CCCCC1)c1cc2ccccc2cc1O | 2.95
COC(=O)c1ccc(NC(=S)NC(=O)C2CCC2)cc1 | 43.6
O=C(Oc1ccc(-c2cn3c(n2)SCC3)cc1)c1ccccc1 | 73.2
CCC(=O)NC(=S)Nc1ccc(NC(=O)COc2ccc(Cl)cc2Cl)cc1 | 79.3
CCN(CC)C(=O)Oc1ccc2c(=O)c(-c3ccc(OC)cc3)coc2c1 | 52.8
CCc1ccc2nc(N3C(=O)C(O)=C(C(=O)c4ccco4)C3c3cccs3)sc2c1 (stereo not drawn) | 86.3
CC(C)(C)C1CCc2nc(NC(=O)Cc3cn4ccsc4n3)sc2C1 (stereo not drawn) | 24.3
O=C(Nc1nc2nc(-c3ccccc3)cc(=O)n2[nH]1)c1ccccc1 | 22.8
Cc1ccc(CN2C3CCCC2CC(NC(=S)NCc2ccccc2)C3)cc1 (stereo not drawn) | 41.1
Cc1cccc(N2CCN(CCCNC(=O)c3ccc(NC(=O)C4=CSCCO4)cc3)CC2C)c1 (stereo not drawn) | 19.7
O=c1oc2ccccc2c(O)c1/C=C1\C=Nc2ccccc21 | 38.8
CCOC(=O)C1=C(C)Nc2nc(SCC(=O)OC)nn2C1c1cc(F)cc(F)c1 (stereo not drawn) | 9.99

Structure (SMILES) | IC50 [µM]
COc1ccc2c(c1)CCc1c(C(=O)Nc3c(C)n(C)n(-c4ccccc4)c3=O)noc1-2 | 89.6
Oc1c(C(c2ccccc2Cl)N2CCCC2)ccc2cccnc12 (stereo not drawn) | 31.2
Nc1ccc(S(=O)(=O)Nc2cnc3ccccc3n2)cc1 | 23.7
Oc1cc(Nc2ccccc2)cc2cccnc12 | 19.7
CCOc1ccc(C2c3[nH]c4ccccc4c3C[C@H]3C(=O)N(C4CCN(Cc5ccccc5)CC4)CC(=O)N23)cc1OC (stereo partly drawn) | 23.7
COc1cc(CNCCc2ccccc2)cc(Cl)c1OCc1ccccc1 | 23.8
COc1ccc(CN2CCN(C(c3ccc(F)cc3)c3ccc(F)cc3)CC2)c(OC)c1OC | 22.9
CN(CC(=O)Nc1ccc(OC(F)(F)F)cc1)C(=O)/C=C/c1cc2c(cc1[N+](=O)[O-])OCO2 | 34.5
CCOC(=O)c1ccc(N=c2sc(C(=O)OC)cc(=O)n2CCCN2CCOCC2)cc1 | 9.02
Oc1ccc(Nc2nc(-c3ccc4ccccc4c3)cs2)cc1 | 82.4
Cc1ccc(C(=O)c2cc(C)sc2NC(=O)CN2CCN(C(=O)c3ccco3)CC2)cc1 | 14.9
C[N+](C)(CCCCCC[N+](C)(C)CCCN1C(=O)c2cccc3cccc(c23)C1=O)CCCN1C(=O)c2cccc3cccc(c23)C1=O | 3.64
CCCCn1c(=O)c(C(=O)Nc2ncccc2C)c(O)c2ccccc21 | 17
COc1cccc2c1C(=O)c1c(O)c3c(c(O)c1C2=O)C[C@@](O)(C(=O)CO)C[C@@H]3O[C@H]1C[C@H](N)[C@@H](O)[C@H](C)O1 | 5.87
Cc1cc(/C=N/n2cnnc2)c(C)n1-c1ccc(OCc2ccc(Cl)cc2Cl)cc1 | 17.6
O=C1CN(CC(=O)N2CCCCC2)c2ccccc2O1 | 24.8
CCCn1c(N2CCN(Cc3ccc(Cl)cc3)CC2)nc2ccccc21 | 25.2
OC(CN1CCN(c2ccccn2)CC1)Cn1c2ccccc2c2ccccc21 (stereo not drawn) | 42
CCCCCc1ccc(-c2cn(Cc3cccc(OC)c3)nn2)cc1 | 38.9
Cc1c(Cl)cccc1-c1ccc(CNCc2ccccn2)o1 | 4.66
C(=C\c1nccc2c1[nH]c1ccccc12)/c1ccccc1 | 31.2

Structure (SMILES) | IC50 [µM]
Brc1ccc(N/N=C(/N=Nc2nn[nH]n2)c2ccccc2)cc1 | 14.4
O=C(c1cc2cc(Cl)ccc2[nH]1)N1CCN(Cc2ccc3c(c2)OCO3)CC1 | 24.2
O=C(C1=C[C@@H](c2csc3ccccc23)C[C@@H](OCCCCO)O1)N1CCN(Cc2ccc3c(c2)OCO3)CC1 | 33.9
CCCCNC(=S)N(C)/N=C/c1ccc2c(c1)OCO2 | 11.8
Nc1nnnn1/N=C/C(Br)=C/c1ccccc1 | 5.6
CC(C)(C)c1ccc(C(=O)CSc2n[nH]c(=O)[nH]c2=O)cc1 | 16.4
CN(C)CCCN(C(=O)c1cc(-c2cccs2)nc2ccccc12)c1nc2ccc(F)cc2s1 | 34.9
Cc1ccc(-n2cc(CN(C)Cc3nccn3C)c(-c3cccc(C)c3)n2)cc1 | 13.1
CC1CN(c2ccc([N+](=O)[O-])c(NCCOc3ccc(Cl)cc3)c2)CC(C)N1 (stereo not drawn) | 15.5
O=C(COc1ccccc1)NNc1nc2ccccc2s1 | 92.8
CN1C(=S)SC(N(O)C(=O)Nc2ccc(Cl)c(Cl)c2)C1(C)C (stereo not drawn) | 23.4
N#Cc1nc(-c2ccc(OCc3ccccc3)cc2)oc1NCCCn1ccnc1 | 37.5
C=CCn1cccc(/C=C/C(=O)c2ccc(C(C)(C)C)cc2)c1=S | 68
O=C(C[C@@H]1C/C=C\C[C@H](NC(=O)OCC2c3ccccc3-c3ccccc32)C(=O)OC[C@H]2CCCN2C1=O)N[C@@H](CO)Cc1ccccc1 | 27.3
NC(N)=Nc1nc(-c2ccccc2)c2ccccc2n1 | 90.1
Cc1ccc(-n2[nH]c(C)c(C=Nc3ccc(S(=O)(=O)Nc4nccs4)cc3)c2=O)c(C)c1 | 6.3
CC(=O)Nc1ccc(S(=O)(=O)Nc2ccc(N3CCCCC3)cc2)cc1 | 12.4
COCC(=O)O[C@]1(CCN(C)CCCc2nc3ccccc3[nH]2)CCc2cc(F)ccc2[C@@H]1C(C)C | 45.4
S=C1SCN(Cc2ccco2)CN1Cc1ccco1 | 43.1

Same assay, conditions: measured here: IC90 growth inhibition

Structure (SMILES) | IC90 [µM]
CC(=O)OC1=Cc2c(ccc3ccc(=O)oc23)OC1(C)C | > 100
